# Experimental data published in patent US8343536B2, “Biofilm-inhibiting medical products” (Cook Biotech Incorporated, priority 2007, dated 2013).
# Key:
# Assay type in all cases: cell-based
# S. aureus (ATCC #25983) [1] = assay: Zone-of-inhibition, ranked, bismuth thiol coated SIS discs (Example 1); conditions: 24 hours
# Procedure: (§1) Seven bismuth thiol compounds (50 mg each) were obtained from Microbion, Inc. (Bozeman, Mont.). These compounds included 2 preparations of bismuth-1,2-ethanedithiol (BisEDT) (Molar ratio 1:1.5), 2 preparations of bismuth-2,3-dimercaptopropanol (BisBAL) (1:1 and 1:1.5), bismuth dithioethylhritol (BisERY) (1:1.5), bismuth-3,4-dimercatotoluene (BisTOL) (1:1.5) and bismuth butanedithiol (BisBDT) (1:1.5). Purified small intestinal submucosa (SIS) (Cook Biotech Incorporated, West Lafayette, Ind.) was made into wetted 4-layer constructs which were laminated together by lyophilization and subsequently cut into 15 mm discs (˜1.76 cm^2) using a disc punch. Bismuth thiols were resuspended in dimethyl sulfoxide (DMSO) and diluted to appropriate concentrations for coating. Discs were coated with the bismuth thiol solutions at three final concentrations using 17.6 μl of the appropriate solution per disc for a final concentration of 1, 10, or 100 μg/cm^2. The discs were subsequently placed in a lyophilizer overnight to remove the DMSO solvent. Control discs were prepared using 17.6 μl of DMSO without a bismuth thiol preparation. 3 bacteria were used for this experiment: S. aureus (ATCC #25983), P. aeruginosa (ATCC #27853), and E. coli (ATCC #25922). Bacteria was grown in Tryptic Soy Broth for 16-24 hours before placing a lawn on Tryptic Soy Agar in 100 mm Petri dishes.
# (§2) Sixty six samples were tested in total (7 bismuth thiol preparations 3 doses=21+1 control=22×3 bacteria=66). A lawn of one of the three bacteria investigated was swabbed onto the Tryptic Soy Agar. The bismuth thiol coated disc was placed approximately in the center of the plate and rehydrated with ˜50 μl of sterile saline. Plates were incubated inverted for 24 hours at which time pictures were taken with a digital camera. Zones-of-inhibition were categorized by the approximate distance of bacterial growth inhibition from the disc edge. The effectiveness was ranked as follows: (−) for no growth retardation, (+) for growth retardation at <1 mm from disc edge, (++) for growth retardation 1-3 mm from disc edge, and (+++) for growth retardation greater than 3 mm from disc edge. Results are shown below in Tables 2-4.
# E. coli (ATCC #25922) [2] = assay: as above; conditions: 24 hours
# Procedure: as §1, §2
# [3] = system: P. aeruginosa (ATCC #27853); assay: as above; conditions: 24 hours
# Procedure: as §1, §2
# S. aureus (ATCC #25983) [4] = assay: Zone-of-inhibition measured by image analysis, coated SIS discs (Example 2); conditions: 10 μg/cm^2 on SIS disc, 24 hours, n=3
# Procedure: (§3) BisEDT (Molar ratio 1:1.5), BisBAL (1:1.5), and BisERY (1:1.5) (50 mg each) were obtained from Microbion, Inc. Small intestinal submucosa (SIS) was obtained and processed into 4-layer lyophilized sheets as described in Example 1. The sheets were subsequently cut into 15 mm discs (˜1.76 cm^2) using a disc punch. Bismuth thiols were resuspended in dimethyl sulfoxide (DMSO) and diluted to 0.35 μg/μl for coating. Discs were coated with the bismuth thiol solutions 50 μl of the appropriate solution per disc for a final concentration 10 μg/cm^2 (0.35 μg/μl*50 μl=17.5 μg/1.76 cm^2=10 μg/cm^2). The discs were subsequently placed in a lyophilizer overnight to remove the DMSO solvent. Control discs were prepared using 50 μl of DMSO without a bismuth thiol preparation. 3 bacteria were used for this experiment: S. aureus (ATCC #25983), P. aeruginosa (ATCC #27853), and E. coli (ATCC #25922). Bacteria was grown in Tryptic Soy Broth for 16-24 hours before placing a lawn on Tryptic Soy Agar in 100 mm Petri dishes.
# (§4) Thirty samples were tested in total (3 bismuth thiol preparations @ n=3→9+1 control=10×3 bacteria=30). A lawn of one of the three bacteria investigated was swabbed onto the Tryptic Soy Agar. The bismuth thiol coated disc was rehydrated for ˜5 minutes in sterile saline and placed approximately in the center of the plate. Plates were incubated inverted for 24 hours at which time pictures were taken with a digital camera. Zones-of-inhibition were measured using image analysis software (Spot RT) by determining the distance of bacterial growth inhibition from the disc edge.
# E. coli (ATCC #25922) [5] = assay: as above; conditions: 10 μg/cm^2 on SIS disc, 24 hours, n=3
# Procedure: as §3, §4
# [6] = system: P. aeruginosa (ATCC #27853); assay: as above; conditions: 10 μg/cm^2 on SIS disc, 24 hours, n=3
# Procedure: as §3, §4
# S. aureus (ATCC #25983) [7] = assay: Zone-of-inhibition after various rehydration times of coated SIS discs (Example 3)
# Procedure: BisEDT (Molar ratio 1:1.5) and BisBAL (1:1.5) (50 mg each) were obtained from Microbion, Inc. Small intestinal submucosa (SIS) was obtained and processed into 4-layer lyophilized sheets as described in Example 1. The sheets were subsequently cut into 15 mm discs (˜1.76 cm^2) using a disc punch. Bismuth thiols were resuspended in dimethyl sulfoxide (DMSO) and diluted to appropriate concentrations for coating. Discs were coated with the bismuth thiol solutions at a final concentration of 0.35 μg/μl using 50 μl of the solution per disc for a final concentration of 10 μg/cm^2. The discs were subsequently placed in a lyophilizer overnight to remove the DMSO solvent. S. aureus (ATCC #25983) was used as the bacteria for this experiment. Bacteria was grown in Tryptic Soy Broth for 16-24 hours before placing a lawn on Tryptic Soy Agar in 100 mm Petri dishes.
# Thirty six samples were tested in total (2 BT*n=3→6*6 rehydration times→36). A lawn of S. aureus was swabbed onto the Tryptic Soy Agar. For the 0 rehydration time point, the bismuth thiol coated disc was placed approximately in the center of the plate and rehydrated with ˜50 μl of sterile saline. Other rehydration times were varied at 5, 10, 20, 30, or 60 minutes. For this, the samples were placed in sterile saline and a timer set for each time. At the appropriate time, samples were removed from the saline and placed approximately in the center of the plate. Plates were incubated inverted for 24 hours at which time pictures were taken with a digital camera. Zones-of-inhibition were compared visually between groups.
Molecule,Zone-of-inhibition rank (S. aureus) (S. aureus (ATCC #25983) [1]; 1 μg/cm^2 on SIS disc),Zone-of-inhibition rank (S. aureus) (S. aureus (ATCC #25983) [1]; 10 μg/cm^2 on SIS disc),Zone-of-inhibition rank (E. coli) (E. coli (ATCC #25922) [2]; 1 μg/cm^2 on SIS disc),Zone-of-inhibition rank (E. coli) (E. coli (ATCC #25922) [2]; 10 μg/cm^2 on SIS disc),Zone-of-inhibition rank (E. coli) (E. coli (ATCC #25922) [2]; 100 μg/cm^2 on SIS disc),Zone-of-inhibition rank (P. aeruginosa) ([3]; 1 μg/cm^2 on SIS disc),Zone-of-inhibition rank (P. aeruginosa) ([3]; 10 μg/cm^2 on SIS disc),Zone-of-inhibition rank (P. aeruginosa) ([3]; 100 μg/cm^2 on SIS disc),"Zone-of-inhibition, distance of bacterial growth inhibition from the disc edge (S. aureus (ATCC #25983) [4])","Zone-of-inhibition, distance of bacterial growth inhibition from the disc edge (E. coli (ATCC #25922) [5])","Zone-of-inhibition, distance of bacterial growth inhibition from the disc edge [6]","Effect of rehydration time on zone-of-inhibition, visual comparison (S. aureus (ATCC #25983) [7]; 10 μg/cm^2, rehydration 0-60 minutes in sterile saline)","Zone-of-inhibition, visual (S. aureus (ATCC #25983) [7]; 10 μg/cm^2 on SIS disc, rehydration 0, 5, 10, 20, 30 or 60 minutes)",Zone-of-inhibition rank (S. aureus) (S. aureus (ATCC #25983) [1]; 100 μg/cm^2 on SIS disc)
"OCC(S)CS.[Bi] (stereo not shown) [Bis BAL2, bismuth-2,3-dimercaptopropanol]",+ ((+) for growth retardation at <1 mm from disc edge),+++ ((+++) for growth retardation greater than 3 mm from disc edge),−,++ ((++) for growth retardation 1-3 mm from disc edge),+++ ((+++) for growth retardation greater than 3 mm from disc edge),−,+ ((+) for growth retardation at <1 mm from disc edge),+++ ((+++) for growth retardation greater than 3 mm from disc edge),,,,,,
"OCC(S)CS.[Bi] (stereo not shown) [BisBAL, bismuth-2,3-dimercaptopropanol]",,,,,,,,,7.27,1.50,0.16,no visual differences between the rehydration time points,significant effectiveness in creating a zone-of-inhibition,
"bismuth-1,2-ethanedithiol [Bis EDT1]",+ ((+) for growth retardation at <1 mm from disc edge),++ ((++) for growth retardation 1-3 mm from disc edge),−,−,+ ((+) for growth retardation at <1 mm from disc edge),−,+ ((+) for growth retardation at <1 mm from disc edge),+ ((+) for growth retardation at <1 mm from disc edge),,,,,,+++ ((+++) for growth retardation greater than 3 mm from disc edge)
"bismuth-1,2-ethanedithiol [Bis EDT2]",++ ((++) for growth retardation 1-3 mm from disc edge),++ ((++) for growth retardation 1-3 mm from disc edge),−,+ ((+) for growth retardation at <1 mm from disc edge),+ ((+) for growth retardation at <1 mm from disc edge),−,−,++ ((++) for growth retardation 1-3 mm from disc edge),,,,,,+++ ((+++) for growth retardation greater than 3 mm from disc edge)
"bismuth-3,4-dimercatotoluene [Bis TOL]",−,+ ((+) for growth retardation at <1 mm from disc edge),−,−,−,−,−,−,,,,,,+ ((+) for growth retardation at <1 mm from disc edge)
bismuth dithioethylhritol [Bis ERY],−,++ ((++) for growth retardation 1-3 mm from disc edge),−,++ ((++) for growth retardation 1-3 mm from disc edge),+++ ((+++) for growth retardation greater than 3 mm from disc edge),−,++ ((++) for growth retardation 1-3 mm from disc edge),+++ ((+++) for growth retardation greater than 3 mm from disc edge),,,,,,+++ ((+++) for growth retardation greater than 3 mm from disc edge)
bismuth butanedithiol [Bis BDT],−,++ ((++) for growth retardation 1-3 mm from disc edge),−,++ ((++) for growth retardation 1-3 mm from disc edge),++ ((++) for growth retardation 1-3 mm from disc edge),−,+ ((+) for growth retardation at <1 mm from disc edge),++ ((++) for growth retardation 1-3 mm from disc edge),,,,,,+++ ((+++) for growth retardation greater than 3 mm from disc edge)
"OCC(S)CS.[Bi] (stereo not shown) [Bis BAL1, bismuth-2,3-dimercaptopropanol]",+ ((+) for growth retardation at <1 mm from disc edge),+++ ((+++) for growth retardation greater than 3 mm from disc edge),−,++ ((++) for growth retardation 1-3 mm from disc edge),+++ ((+++) for growth retardation greater than 3 mm from disc edge),−,+ ((+) for growth retardation at <1 mm from disc edge),+++ ((+++) for growth retardation greater than 3 mm from disc edge),,,,,,+++ ((+++) for growth retardation greater than 3 mm from disc edge)
